This series relates to rodent carcinogenicity bioassays, tumor incidence. The experiment in a line: CCRIS carcinogenicity studies. The method in brief: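 Archive of carcinogenicity, mutagenicity, tumor promotion and tumor inhibition results drawn from journals, NCI reports and other sources, expert-reviewed; covers 1985-2011 and is no longer updated.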

Structures are written as SMILES. Active and inactive are the calls of the source. No rule for the calls is given here.

For the molecule `COS(C)(=O)=O`, the carcinogen call reads like this: (Species: MOUSE, Route: INTRAPERITONEAL, Tumor Site: Type of Lesion: LUNG) “active; positive”; (Species: MOUSE, Route: ORAL, Tumor Site: Type of Lesion: LUNG, THYMUS GLAND) “active; positive”; (Species: RAT, Strain/Sex: SPRAGUE-DAWLEY/MALE, Route: INHALATION, Dose: 0, 50 PPM 6 HR/D 5 D/WK FOR 30 D (STUDY DURATION: LIFETIME), Tumor Site: Type of Lesion: NASAL CAVITY: TUMORS) “active; positive”.
Regarding `CCC(=O)Oc1ccc(/C(CC)=C(\CC)c2ccc(OC(=O)CC)cc2)cc1`, where the note is “Species: RAT, Route: SUBCUTANEOUS, Tumor Site: Type of Lesion: PITUITARY GLAND”, the carcinogen call was “active; positive”.
Consider `CCN(CC)C(=S)SSC(=S)N(CC)CC`, for which the carcinogen call by setting is: (Species: MOUSE, Strain/Sex: B6C3F1/FEMALE, Route: ORAL, Dose: 0, 100, 500 PPM IN DIET, Dose: 0, 100, 500 PPM IN DIET) “inactive; negative”; (Species: MOUSE, Strain/Sex: B6C3F1/MALE, Route: ORAL, Dose: 0, 500, 2000 PPM IN DIET, Dose: 0, 500, 2000 PPM IN DIET) “inactive; negative”; (Species: RAT, Strain/Sex: F344/FEMALE, Route: ORAL, Dose: 0, 300, 600 PPM IN DIET, Dose: 0, 300, 600 PPM IN DIET) “inactive; negative”; (Species: RAT, Strain/Sex: F344/MALE, Route: ORAL, Dose: 0, 300, 600 PPM IN DIET, Dose: 0, 300, 600 PPM IN DIET) “inactive; negative”.
As to `O=Cc1ccccc1`, the carcinogen call is “active; positive” (Species: MOUSE, Strain/Sex: B6C3F1/FEMALE, Route: GAVAGE, Dose: 0, 300, 600 MG/KG IN CORN OIL 5 D/WK FOR 103 WK (STUDY DURATION: 104 WK), Dose: 0, 300, 600 MG/KG IN CORN OIL 5 D/WK FOR 103 WK (STUDY DURATION: 104 WK), Tumor Site: Type of Lesion: FORESTOMACH: SQUAMOUS PAPILLOMA); “active; positive” (Species: MOUSE, Strain/Sex: B6C3F1/MALE, Route: GAVAGE, Dose: 0, 200, 400 MG/KG IN CORN OIL 5 D/WK FOR 104 WK (STUDY DURATION: 105 WK), Dose: 0, 200, 400 MG/KG IN CORN OIL 5 D/WK FOR 104 WK (STUDY DURATION: 105 WK), Tumor Site: Type of Lesion: FORESTOMACH: SQUAMOUS PAPILLOMA); “inactive; negative” (Species: RAT, Strain/Sex: F344/FEMALE, Route: GAVAGE, Dose: 0, 200, 400 MG/KG IN CORN OIL 5 D/WK FOR 103 WK (STUDY DURATION: 105 WK), Dose: 0, 200, 400 MG/KG IN CORN OIL 5 D/WK FOR 103 WK (STUDY DURATION: 105 WK)); “inactive; negative” (Species: RAT, Strain/Sex: F344/MALE, Route: GAVAGE, Dose: 0, 200, 400 MG/KG IN CORN OIL 5 D/WK FOR 103 WK (STUDY DURATION: 105 WK), Dose: 0, 200, 400 MG/KG IN CORN OIL 5 D/WK FOR 103 WK (STUDY DURATION: 105 WK)).
For the molecule `c1cc2ccc3ccc4ccc5cccc6c(c1)c2c3c4c56`, the carcinogen call (Species: RAT, Strain/Sex: OSBORNE-MENDEL/FEMALE, Route: LUNG IMPLANT, Dose: 0, 0.16, 0.83, 4.15 MG IN BEESWAX/TRIOCTANOIN (STUDY DURATION: LIFETIME), Dose: 0, 0.16, 0.83, 4.15 MG IN BEESWAX/TRIOCTANOIN (STUDY DURATION: LIFETIME)) is “inactive; negative”.
On to `OC[C@@H](O)[C@@H](O[C@@H]1O[C@H](CO)[C@H](O)[C@H](O)[C@H]1O)[C@H](O)[C@@H](O)CO`, for which the carcinogen call is “inactive; negative” (Species: MOUSE, Strain/Sex: CPB:SWISS/FEMALE, Route: ORAL, Dose: 0, 2, 5, 10% IN DIET FOR 104 WK (STUDY DURATION: 734 D), Dose: 0, 2, 5, 10% IN DIET FOR 104 WK (STUDY DURATION: 734 D)); “inactive; negative” (Species: MOUSE, Strain/Sex: CPB:SWISS/MALE, Route: ORAL, Dose: 0, 2, 5, 10% IN DIET FOR 104 WK (STUDY DURATION: 730 D), Dose: 0, 2, 5, 10% IN DIET FOR 104 WK (STUDY DURATION: 730 D)); “inactive; negative” (Species: RAT, Strain/Sex: SPF/FEMALE, Route: ORAL, Dose: 0, 2, 5, 10% IN DIET FOR DURATION OF STUDY ADMINISTERED TO OFFSPRING OF RATS FED THE SAME DIETS (STUDY DURATION: 130 WK), Dose: 0, 2, 5, 10% IN DIET FOR DURATION OF STUDY ADMINISTERED TO OFFSPRING OF RATS FED THE SAME DIETS (STUDY DURATION: 130 WK)); “active; positive” (Species: RAT, Strain/Sex: SPF/MALE, Route: ORAL, Dose: 0, 2, 5, 10% IN DIET FOR DURATION OF STUDY ADMINISTERED TO OFFSPRING OF RATS FED THE SAME DIETS (STUDY DURATION: 130 WK), Dose: 0, 2, 5, 10% IN DIET FOR DURATION OF STUDY ADMINISTERED TO OFFSPRING OF RATS FED THE SAME DIETS (STUDY DURATION: 130 WK), Tumor Site: Type of Lesion: TESTES: LEYDIG CELL TUMOR).
As to `CCCCN(CCCC)N=O`, the carcinogen call is “active; positive” (Species: GUINEA PIG, Route: ORAL, Tumor Site: Type of Lesion: LIVER); “active; positive” (Species: HAMSTER, Route: GAVAGE, Tumor Site: Type of Lesion: LUNG, RESPIRATORY TRACT, TRACHEA, FORESTOMACH, Tumor Site: Type of Lesion: LUNG, RESPIRATORY TRACT, TRACHEA, FORESTOMACH); “active; positive” (Species: HAMSTER, Route: INTRAPERITONEAL, Tumor Site: Type of Lesion: RESPIRATORY TRACT); “active; positive” (Species: HAMSTER, Route: SUBCUTANEOUS, Tumor Site: Type of Lesion: TRACHEA, URINARY BLADDER, FORESTOMACH, RESPIRATORY TRACT, Tumor Site: Type of Lesion: TRACHEA, URINARY BLADDER, FORESTOMACH, RESPIRATORY TRACT); “active; positive” (Species: MOUSE, Route: INTRAVENOUS, Tumor Site: Type of Lesion: HEMATOPOIETIC SYSTEM (LEUKEMIA)); “active; positive” (Species: MOUSE, Route: ORAL, Tumor Site: Type of Lesion: ESOPHAGUS, FORESTOMACH, LIVER, URINARY BLADDER, Tumor Site: Type of Lesion: ESOPHAGUS, FORESTOMACH, LIVER, URINARY BLADDER). The carcinogen call was “active; positive” (Species: MOUSE, Route: SUBCUTANEOUS, Tumor Site: Type of Lesion: URINARY BLADDER, LUNG); “active; positive” (Species: RABBIT, Route: SUBCUTANEOUS, Tumor Site: Type of Lesion: URINARY BLADDER); “active; positive” (Species: RAT, Route: ORAL, Tumor Site: Type of Lesion: ESOPHAGUS, LIVER, URINARY BLADDER, Tumor Site: Type of Lesion: ESOPHAGUS, LIVER, URINARY BLADDER); “active; positive” (Species: RAT, Route: SUBCUTANEOUS, Tumor Site: Type of Lesion: URINARY BLADDER, LUNG).
In the case of `CCC(C)[C@H]1O[C@]2(CC[C@@H]1C)CC1C[C@@H](C/C=C(\C)[C@@H](O[C@H]3C[C@H](OC)[C@@H](OC4C[C@H](OC)[C@@H](O)[C@H](C)O4)[C@H](C)O3)[C@@H](C)/C=C/C=C3\CO[C@@H]4[C@H](O)C(C)=C[C@@H](C(=O)O1)[C@]34O)O2` (stereo partly drawn) (tested in a mixture with another compound), the carcinogen call (Species: RAT, Strain/Sex: WISTAR/MALE, Route: ORAL, Dose: 0, 2 PPM IN DIET FOR DURATION OF STUDY (STUDY DURATION: 1 YR)) is “inactive; negative”.

Values taken from PubChem BioAssay AID1259411 (Chemical Carcinogenesis Research Information System (CCRIS), 2018).
